Reference: patent US20060217359A1, “Therapeutic procedures” (priority 2003, published 2006)

How the values were obtained:
LDL / apoB-100 = LDL / apoB-100 (Homo sapiens, UniProt P04114); test: Circular dichroism of LDL secondary structure; format: biochemical; details: LDL 100 μg/ml, compound 10 μM, PBS pH 7.4, 37° C., up to 48 h; for random coil of LDL after incubation: native LDL 27±2%; for α helical structure of LDL after incubation (loss of secondary structure): native LDL ~40±2%
Procedure: Circular dichroism. […] Spectra were recorded in the peptidic range (200-260 nm). To increase the signal-to-noise ratio, multiple spectra (three) were averaged for each measurement.

[1] = Cytotoxicity assay (LDH release), WI-L2; format: cell-based; details: human
Procedure: (§1) Cytotoxicity assays. WI-L2 human B-lymphocyte line, HAAE-1 human abdominal aortic endothelial line, MH—S murine alveolar macrophage line, and J774A.1 murine tissue macrophage line were obtained from the ATCC. Human aortic endothelial cells (HAEC) and human vascular smooth muscle cells (VSMS) were obtained from Cambrex Bio Science. Jurkat E6-1T-lymphocytes were kindly provided by Dr. J. Kaye (The Scripps Research Institute). Cells were cultured in ATCC-recommended media with 10% fetal calf serum. Cells were incubated in a controlled atmosphere at 37° C., with 5 or 7% CO2. For lactate dehydrogenase (LDH) release assays, adherent cells were harvested either by addition of 0.05% trypsin/EDTA or by scraping. The cells obtained were seeded onto 96-well microtiter plates (25,000 cells/well) and allowed to recover for 24-48 h. […] Cytotoxicity was then determined by measuring lactate dehydrogenase (LDH) release from cells in culture. […] 100% Cytotoxicity was defined as the maximum amount of LDH released by dead cells as shown by trypan blue exclusion, or the highest amount of LDH detected upon lysis of cells by 0.9% Triton X-100. The IC50 values were determined by comparison of the raw duplicate data for concentration versus cytotoxicity (%) to non-linear regression analysis (Hill plot) using Graphpad v3.0 software for Macintosh. […]

[2] = Cytotoxicity assay (LDH release), HAEC; format: cell-based; details: human, 0-100 μM
Procedure: as §1

[3] = Cytotoxicity assay (LDH release), Jurkat; format: cell-based; details: human
Procedure: as §1

[4] = Cytotoxicity assay (LDH release), VSMC; format: cell-based; details: human, 0-100 μM
Procedure: as §1

[5] = Decrease of extractable 5a in stored plasma; format: in vitro ADME; details: stored human plasma, preliminary investigations
Text: The combined organic fractions were evaporated in vacuo.

[6] = Cytotoxicity assay (LDH release), MH-S; format: cell-based, murine; details: mouse, MH-S cells, 0-100 μM
Procedure: as §1

[7] = Cytotoxicity assay (LDH release), J774A.1; format: cell-based, murine; details: mouse, J774A.1 cells, 0-100 μM
Procedure: as §1

LDL / apoB-100, sequence (P04114 28-4563): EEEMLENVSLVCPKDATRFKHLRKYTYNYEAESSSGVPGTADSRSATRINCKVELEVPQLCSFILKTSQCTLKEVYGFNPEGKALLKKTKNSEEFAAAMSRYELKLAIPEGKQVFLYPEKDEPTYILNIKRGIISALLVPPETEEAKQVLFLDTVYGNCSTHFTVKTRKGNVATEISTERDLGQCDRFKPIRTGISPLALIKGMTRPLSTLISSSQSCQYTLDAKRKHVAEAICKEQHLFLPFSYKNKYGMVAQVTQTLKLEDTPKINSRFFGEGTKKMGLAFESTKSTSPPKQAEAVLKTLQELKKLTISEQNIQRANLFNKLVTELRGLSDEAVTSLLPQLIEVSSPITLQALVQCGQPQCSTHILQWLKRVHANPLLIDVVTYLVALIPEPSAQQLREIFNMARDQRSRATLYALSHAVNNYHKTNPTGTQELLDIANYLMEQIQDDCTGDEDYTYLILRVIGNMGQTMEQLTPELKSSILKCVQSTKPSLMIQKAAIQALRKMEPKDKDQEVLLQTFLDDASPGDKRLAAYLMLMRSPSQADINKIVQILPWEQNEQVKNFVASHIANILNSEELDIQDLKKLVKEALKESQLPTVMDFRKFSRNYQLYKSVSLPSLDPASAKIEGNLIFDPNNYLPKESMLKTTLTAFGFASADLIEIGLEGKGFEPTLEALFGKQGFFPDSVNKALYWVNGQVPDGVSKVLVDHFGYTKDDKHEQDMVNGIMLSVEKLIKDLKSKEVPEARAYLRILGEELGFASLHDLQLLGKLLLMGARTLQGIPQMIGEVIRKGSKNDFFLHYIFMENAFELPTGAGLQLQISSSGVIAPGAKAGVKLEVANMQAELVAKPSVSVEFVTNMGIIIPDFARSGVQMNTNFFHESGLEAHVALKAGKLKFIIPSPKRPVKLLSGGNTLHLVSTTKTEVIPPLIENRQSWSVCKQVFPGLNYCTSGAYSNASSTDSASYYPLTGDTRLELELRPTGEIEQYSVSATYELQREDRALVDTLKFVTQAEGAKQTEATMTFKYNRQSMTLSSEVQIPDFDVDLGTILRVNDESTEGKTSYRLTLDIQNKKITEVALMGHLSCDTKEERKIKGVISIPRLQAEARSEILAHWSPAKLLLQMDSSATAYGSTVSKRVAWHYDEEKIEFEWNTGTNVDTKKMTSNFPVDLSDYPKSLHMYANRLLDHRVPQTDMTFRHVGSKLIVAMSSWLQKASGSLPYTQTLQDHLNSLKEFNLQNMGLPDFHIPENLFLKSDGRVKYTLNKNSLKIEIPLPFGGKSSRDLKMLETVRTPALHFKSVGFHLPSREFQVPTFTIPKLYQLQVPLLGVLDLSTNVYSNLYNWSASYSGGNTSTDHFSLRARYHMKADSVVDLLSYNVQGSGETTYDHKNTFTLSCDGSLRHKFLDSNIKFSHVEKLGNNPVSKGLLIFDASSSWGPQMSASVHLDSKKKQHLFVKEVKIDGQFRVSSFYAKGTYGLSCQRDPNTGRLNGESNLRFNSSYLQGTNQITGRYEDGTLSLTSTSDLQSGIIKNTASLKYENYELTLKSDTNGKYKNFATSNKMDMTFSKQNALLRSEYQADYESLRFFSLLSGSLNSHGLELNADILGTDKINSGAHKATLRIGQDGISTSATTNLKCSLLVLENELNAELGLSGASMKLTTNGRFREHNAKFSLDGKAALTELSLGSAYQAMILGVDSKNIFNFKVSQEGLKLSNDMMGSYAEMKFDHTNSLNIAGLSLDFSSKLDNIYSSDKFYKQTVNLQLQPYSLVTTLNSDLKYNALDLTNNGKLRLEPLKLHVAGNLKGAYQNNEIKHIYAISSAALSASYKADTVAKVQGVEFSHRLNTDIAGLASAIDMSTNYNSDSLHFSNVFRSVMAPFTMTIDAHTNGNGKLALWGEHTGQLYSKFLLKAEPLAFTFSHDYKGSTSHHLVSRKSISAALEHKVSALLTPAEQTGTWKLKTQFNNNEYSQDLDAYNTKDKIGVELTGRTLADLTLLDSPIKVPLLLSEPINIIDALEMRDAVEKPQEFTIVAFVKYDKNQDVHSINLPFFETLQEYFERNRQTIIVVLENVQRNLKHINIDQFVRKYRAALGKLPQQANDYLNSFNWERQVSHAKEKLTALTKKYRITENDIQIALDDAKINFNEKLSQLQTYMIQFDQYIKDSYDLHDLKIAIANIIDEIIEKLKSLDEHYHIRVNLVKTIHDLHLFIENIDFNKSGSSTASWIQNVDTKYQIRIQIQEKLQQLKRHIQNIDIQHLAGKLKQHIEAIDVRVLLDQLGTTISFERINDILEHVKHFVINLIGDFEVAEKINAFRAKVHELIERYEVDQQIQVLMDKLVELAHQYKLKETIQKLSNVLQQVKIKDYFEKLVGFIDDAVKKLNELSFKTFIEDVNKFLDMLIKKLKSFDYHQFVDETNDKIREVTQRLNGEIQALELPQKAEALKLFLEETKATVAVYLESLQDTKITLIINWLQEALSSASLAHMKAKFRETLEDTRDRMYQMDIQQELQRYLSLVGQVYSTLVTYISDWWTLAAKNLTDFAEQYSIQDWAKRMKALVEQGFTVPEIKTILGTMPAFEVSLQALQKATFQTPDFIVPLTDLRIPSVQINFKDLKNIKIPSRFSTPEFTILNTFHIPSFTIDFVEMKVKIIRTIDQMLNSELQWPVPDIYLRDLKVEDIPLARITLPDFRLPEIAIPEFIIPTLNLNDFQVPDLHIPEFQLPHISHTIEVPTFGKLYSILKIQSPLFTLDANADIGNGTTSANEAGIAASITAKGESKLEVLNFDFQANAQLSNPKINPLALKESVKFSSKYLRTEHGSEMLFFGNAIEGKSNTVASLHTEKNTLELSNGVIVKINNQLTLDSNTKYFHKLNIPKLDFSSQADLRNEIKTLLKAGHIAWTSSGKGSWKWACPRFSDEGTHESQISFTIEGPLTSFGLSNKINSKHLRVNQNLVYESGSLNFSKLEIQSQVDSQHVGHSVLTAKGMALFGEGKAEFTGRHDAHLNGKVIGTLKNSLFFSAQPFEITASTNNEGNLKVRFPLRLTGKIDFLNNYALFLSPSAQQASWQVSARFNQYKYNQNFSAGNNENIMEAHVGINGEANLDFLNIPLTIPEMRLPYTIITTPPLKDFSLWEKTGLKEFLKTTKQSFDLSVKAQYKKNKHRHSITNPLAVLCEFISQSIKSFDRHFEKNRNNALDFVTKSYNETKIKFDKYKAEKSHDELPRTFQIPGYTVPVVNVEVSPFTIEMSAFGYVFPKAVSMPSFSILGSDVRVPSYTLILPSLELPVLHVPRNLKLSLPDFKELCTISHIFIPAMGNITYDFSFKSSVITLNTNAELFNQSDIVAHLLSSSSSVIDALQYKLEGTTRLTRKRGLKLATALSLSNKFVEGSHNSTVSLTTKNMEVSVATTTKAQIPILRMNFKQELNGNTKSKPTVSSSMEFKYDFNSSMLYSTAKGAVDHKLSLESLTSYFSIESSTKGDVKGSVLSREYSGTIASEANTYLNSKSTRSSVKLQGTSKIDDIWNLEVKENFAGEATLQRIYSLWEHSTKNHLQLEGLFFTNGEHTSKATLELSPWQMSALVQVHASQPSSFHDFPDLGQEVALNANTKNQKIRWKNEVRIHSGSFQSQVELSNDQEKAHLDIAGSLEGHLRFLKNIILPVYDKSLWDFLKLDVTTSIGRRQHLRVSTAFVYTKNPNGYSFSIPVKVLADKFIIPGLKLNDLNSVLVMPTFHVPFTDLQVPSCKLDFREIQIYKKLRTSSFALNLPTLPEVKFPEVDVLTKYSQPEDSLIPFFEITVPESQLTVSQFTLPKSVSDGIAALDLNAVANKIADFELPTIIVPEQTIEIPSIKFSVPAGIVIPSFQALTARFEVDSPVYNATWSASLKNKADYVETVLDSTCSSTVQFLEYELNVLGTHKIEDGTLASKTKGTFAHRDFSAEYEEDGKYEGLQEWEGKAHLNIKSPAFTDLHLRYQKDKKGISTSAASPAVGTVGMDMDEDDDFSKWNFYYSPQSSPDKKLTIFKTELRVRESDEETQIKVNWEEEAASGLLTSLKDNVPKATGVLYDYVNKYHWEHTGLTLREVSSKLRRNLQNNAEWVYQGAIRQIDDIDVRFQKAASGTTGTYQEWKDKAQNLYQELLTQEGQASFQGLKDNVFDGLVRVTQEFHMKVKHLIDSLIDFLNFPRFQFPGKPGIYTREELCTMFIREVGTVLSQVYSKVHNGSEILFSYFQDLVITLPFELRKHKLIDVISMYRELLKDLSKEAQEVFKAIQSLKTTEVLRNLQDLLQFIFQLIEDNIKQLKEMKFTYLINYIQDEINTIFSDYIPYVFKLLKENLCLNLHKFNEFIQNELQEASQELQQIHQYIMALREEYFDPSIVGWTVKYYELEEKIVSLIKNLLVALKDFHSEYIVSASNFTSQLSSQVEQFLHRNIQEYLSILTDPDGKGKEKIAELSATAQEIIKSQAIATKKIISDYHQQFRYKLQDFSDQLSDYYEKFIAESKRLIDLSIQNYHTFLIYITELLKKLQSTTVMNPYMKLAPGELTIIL

| SMILES | random coil of LDL after incubation (LDL / apoB-100) [%] | α helical structure of LDL after incubation (loss of secondary structure) (LDL / apoB-100) [%] | IC50 at 18 h [1] [µM] | IC50 at 18 h ([2]; human aortic endothelial cells (HAEC)) [µM] | IC50 at 18 h [3] [µM] | IC50 at 18 h ([4]; vascular smooth muscle cells (VSMC)) [µM] | decrease of the amount that can be extracted from plasma [5] | IC50 at 18 h ([1]; WIL2 cells, 18 h, 0-100 μM, read-out: IC50 (cytotoxicity, LDH release)) [µM] | IC50 at 18 h ([2]; HAEC cells) [µM] | IC50 at 18 h ([3]; Jurkat E6.1 cells, 18 h, 0-100 μM, read-out: IC50 (cytotoxicity, LDH release)) [µM] | IC50 at 18 h [6] [µM] | IC50 at 18 h ([4]; VSMC cells) [µM] | IC50 at 18 h [7] [µM] |
| --- | --- | --- | --- | --- | --- | --- | --- | --- | --- | --- | --- | --- | --- |
| CC(C)CCC[C@@H](C)[C@H]1CCC2C(CC=O)C([C@@]3(C)CC[C@H](O)CC3=O)CC[C@@]21C (stereo partly drawn) [4a, 3β-Hydroxy-5-oxo-5,6-secocholestan-6-al] | ~39±2 | ~23±5 | 10.9 ± 1.6 | 24.6 ± 3.2 | 15.5 ± 1.7 | 21.9 ± 2.2 | – | – | – | – | – | – | – |
| CC(C)CCC[C@@H](C)[C@H]1CCC2C3C(CC[C@@]21C)[C@@]1(C)CC[C@H](O)C[C@@]1(O)[C@@H]3C=O (stereo partly drawn) [5a, 3β-Hydroxy-5β-hydroxy-B-norcholestane-6β-carboxaldehyde] | 32±4 | ~20±2 | – | – | – | – | about 5 % per day | 17.7 ± 2.3 | 18.2 ± 1.9 | 12.6 ± 1.9 | 13.6 ± 1.1 | 29.8 ± 2.8 | 26.1 ± 2.8 |
